Assays:
CF mice [1] = experiment: Pulmonary mechanics of CF mice by forced oscillation technique (FlexiVent) after treatment with AGTR2 blocker; type: in vivo; conditions: 2 mg/kg per day subcutaneous, 5 days per week, age 3 to 16 weeks, assessed at 16 weeks, 2 mg/kg/day
From the text: AGTR2 knockout mice (AT KO; dark grey bars) are indistinguishable from WT mice.
We recently used a forced mechanical oscillation procedure to evaluate pulmonary mechanics in CF mice (DF508 congenic C57bl/6). We determined that CF mice have decreased compliance and increased elastance of their overall respiratory system, along with altered airway tissue elastance, damping, and static compliance (FIG. 1). […] Taken together, these findings indicate increased impedance of the small airways in CF mice, as differences in CF mouse pulmonary mechanics were confined to the peripheral tissues, which include the distal airways and lung parenchyma itself. This is consistent with the pulmonary phenotype of CF patients, where significant increases in small airways resistance may occur even in patients with normal spirometry.
(§1) Drugs exist that are designed to specifically block the AGTR2 receptor, and we used one of these drugs to determine whether the same benefits may be achievable through pharmaceutical intervention. Briefly, CF mice were treated via subcutaneous injection of EMA200 (PD123319), available from Sigma Pharmaceuticals), at a dose of 2 mg/kg per day. The mice were treated from age 3 weeks through adulthood (16 weeks), 5 days per week. At 16 weeks, the pulmonary mechanics of the mice were assessed using the forced oscillation technique (FIG. 1).

CF mice [2] = experiment: Survival and health of CF mice during the drug study; type: in vivo
Method: as §1

Cc1cc(Cn2cnc3c2CC(C(=O)O)N(C(=O)C(c2ccccc2)c2ccccc2)C3)ccc1N(C)C (centres unmarked) [EMA200, 1-(4-Dimethylamino-3-methylphenyl)methyl-5-diphenylacetyl-4,5,6,7-tetrahy-dro-1H-imidazo[4,5-c]-pyridine-6-carboxylic acid]
pulmonary mechanics / all aspects of pulmonary disease (respiratory system compliance and elastance, tissue damping, tissue elastance, static tissue compliance) (CF mice [1]): successfully restored/prevented all aspects of pulmonary disease in CF mice
shape parameter (inhalation/exhalation curve shape, K) (CF mice [1]): not improved
pulmonary mechanics / all aspects of pulmonary disease (respiratory system compliance and elastance, tissue damping, tissue elastance, static tissue compliance) (CF mice [1]; listed as AGTR2 inhibitor): improved pulmonary mechanics
survival of CF mice (CF mice [2]; 6 CF mice, daily injections, saline controls 5/6 died): all survived
general health appearance of CF mice (CF mice [2]; versus control untreated CF mice): appeared much healthier

— US10987343B2, “Compositions and methods for treating pulmonary diseases” (CASE WESTERN RESERVE UNIVERSITY, priority 2015, dated 2021)
